Laboratory results taken from ChEMBL document CHEMBL5724914, “Linking interpersonal differences in gut microbiota composition and drug biotransformation activity” (2024).

How the values were obtained:
[1] = human gut metagenome, 24 h, 2 µM
[2] = human gut metagenome, 24 h, 2 µM; remark: listed apart in the source
[3] = (§1) The drug is tested on WLS-007 corresponding to human gut metagenome with ENA study accession number: PRJEB37062 and ENA sample accession number: ERS12561742 for biotransformation under anaerobic condition. The drug concentrations were measured over 9 timepoints collected between 0 and 24 hours of incubation by liquid-chromatography-coupled mass spectrometry (LC–MS); conditions: 2 µM
[4] = human gut metagenome, 24 h, 2 µM; remark: listed apart in the source
[5] = human gut metagenome, 24 h, 2 µM; remark: listed apart in the source
[6] = as §1, with “WLS-240” for “WLS-007”, “ERS12561773” for “ERS12561742”; conditions: 2 µM
[7] = human gut metagenome, 24 h, 2 µM; remark: listed apart in the source
[8] = human gut metagenome, 24 h, 2 µM; remark: listed apart in the source
[9] = as §1, with “Z-023” for “WLS-007”, “to” for “to human gut”, “ERS12561822” for “ERS12561742”; conditions: 2 µM
Also: call rule not given here.

Structure (SMILES) | Bacterial Biotransformation [1] | Bacterial Biotransformation [2] | Bacterial Biotransformation [3] | Bacterial Biotransformation [4] | Bacterial Biotransformation [5] | Bacterial Biotransformation [6] | Bacterial Biotransformation [7] | Bacterial Biotransformation [8] | Bacterial Biotransformation [9]
COc1ccc2c3c1O[C@H]1C[C@@H](O)C=C[C@@]31CCN(C)C2 [GALANTAMINE] | Compound NOT metabolized | Compound metabolized | Compound NOT metabolized | Compound metabolized | Compound NOT metabolized | Compound metabolized | Compound metabolized | Compound metabolized | Compound NOT metabolized
Cc1ccc(S(=O)(=O)NC(=O)NN2CC3CCCC3C2)cc1 (stereo not given) [GLICLAZIDE] | Compound metabolized | Compound metabolized | Compound NOT metabolized | Compound metabolized | Compound metabolized | Compound metabolized | Compound metabolized | Compound metabolized | Compound metabolized
COC1=CC(=O)C[C@@H](C)[C@]12Oc1c(Cl)c(OC)cc(OC)c1C2=O [GRISEOFULVIN] | Compound metabolized | Compound NOT metabolized | Compound metabolized | Compound metabolized | Compound metabolized | Compound metabolized | Compound metabolized | Compound metabolized | Compound metabolized
N#Cc1ccc(C(c2ccc(C#N)cc2)n2cncn2)cc1 [LETROZOLE] | Compound NOT metabolized | Compound NOT metabolized | Compound NOT metabolized | Compound NOT metabolized | Compound NOT metabolized | Compound NOT metabolized | Compound NOT metabolized | Compound NOT metabolized | Compound metabolized
CC(Oc1c(Cl)cccc1Cl)C1=NCCN1 (stereo not given) [LOFEXIDINE] | Compound NOT metabolized | Compound metabolized | Compound metabolized | Compound metabolized | Compound NOT metabolized | Compound metabolized | Compound metabolized | Compound metabolized | Compound NOT metabolized
CN(C)C(=O)C(CCN1CCC(O)(c2ccc(Cl)cc2)CC1)(c1ccccc1)c1ccccc1 [LOPERAMIDE] | Compound metabolized | Compound metabolized | Compound metabolized | Compound metabolized | Compound metabolized | Compound metabolized | Compound metabolized | Compound metabolized | Compound metabolized
CCCCc1nc(Cl)c(CO)n1Cc1ccc(-c2ccccc2-c2nn[nH]n2)cc1 [LOSARTAN] | Compound metabolized | Compound metabolized | Compound metabolized | Compound metabolized | Compound metabolized | Compound metabolized | Compound metabolized | Compound NOT metabolized | Compound metabolized
COC(=O)Nc1nc2ccc(C(=O)c3ccccc3)cc2[nH]1 [MEBENDAZOLE] | Compound metabolized | Compound metabolized | Compound metabolized | Compound metabolized | Compound metabolized | Compound metabolized | Compound metabolized | Compound metabolized | Compound metabolized
COc1ccccc1OCC(O)COC(N)=O (stereo not given) [METHOCARBAMOL] | Compound NOT metabolized | Compound NOT metabolized | Compound NOT metabolized | Compound NOT metabolized | Compound NOT metabolized | Compound NOT metabolized | Compound NOT metabolized | Compound NOT metabolized | Compound NOT metabolized
CC[C@@H](CO)NC(=O)[C@@H]1C=C2c3cccc4c3c(cn4C)C[C@H]2N(C)C1.O=C(O)/C=C\C(=O)O [METHYSERGIDE MALEATE] | Compound NOT metabolized | Compound NOT metabolized | Compound NOT metabolized | Compound NOT metabolized | Compound NOT metabolized | Compound NOT metabolized | Compound NOT metabolized | Compound metabolized | Compound NOT metabolized
CCN(CC)CCNC(=O)c1cc(Cl)c(N)cc1OC [METOCLOPRAMIDE] | Compound NOT metabolized | Compound NOT metabolized | Compound NOT metabolized | Compound NOT metabolized | Compound NOT metabolized | Compound metabolized | Compound NOT metabolized | Compound NOT metabolized | Compound NOT metabolized
Cc1ccccc1N1C(=O)c2cc(S(N)(=O)=O)c(Cl)cc2NC1C (stereo not given) [METOLAZONE] | Compound NOT metabolized | Compound metabolized | Compound NOT metabolized | Compound NOT metabolized | Compound NOT metabolized | Compound metabolized | Compound metabolized | Compound metabolized | Compound NOT metabolized
COCCc1ccc(OCC(O)CNC(C)C)cc1.COCCc1ccc(OCC(O)CNC(C)C)cc1.O=C(O)C(O)C(O)C(=O)O (stereo not given) [METOPROLOL TARTRATE] | Compound NOT metabolized | Compound metabolized | Compound NOT metabolized | Compound NOT metabolized | Compound NOT metabolized | Compound metabolized | Compound metabolized | Compound NOT metabolized | Compound NOT metabolized
COc1c(C)c2c(c(O)c1C/C=C(\C)CCC(=O)OCCN1CCOCC1)C(=O)OC2 [MYCOPHENOLATE MOFETIL] | Compound metabolized | Compound metabolized | Compound metabolized | Compound metabolized | Compound metabolized | Compound metabolized | Compound metabolized | Compound metabolized | Compound metabolized
CCN(CC)CCOC(=O)C(Cc1cccc2ccccc12)CC1CCCO1.O=C(O)C(=O)O (stereo not given) [NAFRONYL OXALATE] | Compound metabolized | Compound metabolized | Compound metabolized | Compound metabolized | Compound NOT metabolized | Compound metabolized | Compound metabolized | Compound metabolized | Compound metabolized
CCc1nn(CCCN2CCN(c3cccc(Cl)c3)CC2)c(=O)n1CCOc1ccccc1 [NEFAZODONE] | Compound metabolized | Compound metabolized | Compound metabolized | Compound metabolized | Compound metabolized | Compound metabolized | Compound metabolized | Compound metabolized | Compound NOT metabolized
CN1CCOC(c2ccccc2)c2ccccc2C1 (stereo not given) [NEFOPAM] | Compound metabolized | Compound metabolized | Compound metabolized | Compound metabolized | Compound NOT metabolized | Compound NOT metabolized | Compound metabolized | Compound metabolized | Compound NOT metabolized
Cc1ccnc2c1NC(=O)c1cccnc1N2C1CC1 [NEVIRAPINE] | Compound NOT metabolized | Compound metabolized | Compound metabolized | Compound metabolized | Compound NOT metabolized | Compound metabolized | Compound metabolized | Compound metabolized | Compound metabolized
CO[C@]12C[C@@H](COC(=O)c3cncc(Br)c3)CN(C)[C@@H]1Cc1cn(C)c3cccc2c13 [NICERGOLINE] | Compound NOT metabolized | Compound NOT metabolized | Compound NOT metabolized | Compound NOT metabolized | Compound NOT metabolized | Compound NOT metabolized | Compound NOT metabolized | Compound NOT metabolized | Compound metabolized
COc1ccc2c(c1OC)C(=O)O[C@@H]2[C@H]1c2c(cc3c(c2OC)OCO3)CCN1C [NOSCAPINE] | Compound metabolized | Compound NOT metabolized | Compound NOT metabolized | Compound metabolized | Compound metabolized | Compound metabolized | Compound NOT metabolized | Compound NOT metabolized | Compound metabolized
